Data: publication PMC8402619 (Viruses, 2021)

Experiments:
[1] = Plasma protein binding by equilibrium dialysis, human plasma; format: in vitro ADME
[2] = biological target: T1, recombinant human adenosine deaminase (ADA) (Homo sapiens, UniProt P00813); assay: Metabolism and enzyme kinetics with recombinant human ADA; format: in vitro ADME
T1 construct: purchased Novus Biologicals, LLC

[3] = Renal clearance after 1 mg/kg intravenous, rabbit; format: in vivo, female Dutch Belted rabbits; conditions: 1 mg/kg intravenously
CYP2C19 = CYP2C19 (Homo sapiens, UniProt P33261); assay: Reversible CYP inhibition in pooled human liver microsomes; format: in vitro ADME
UGT1A1 = biological target: T2, UGT1A1 (Homo sapiens, UniProt P22309); format: in vitro ADME
T2 sequence (P22309 26-533): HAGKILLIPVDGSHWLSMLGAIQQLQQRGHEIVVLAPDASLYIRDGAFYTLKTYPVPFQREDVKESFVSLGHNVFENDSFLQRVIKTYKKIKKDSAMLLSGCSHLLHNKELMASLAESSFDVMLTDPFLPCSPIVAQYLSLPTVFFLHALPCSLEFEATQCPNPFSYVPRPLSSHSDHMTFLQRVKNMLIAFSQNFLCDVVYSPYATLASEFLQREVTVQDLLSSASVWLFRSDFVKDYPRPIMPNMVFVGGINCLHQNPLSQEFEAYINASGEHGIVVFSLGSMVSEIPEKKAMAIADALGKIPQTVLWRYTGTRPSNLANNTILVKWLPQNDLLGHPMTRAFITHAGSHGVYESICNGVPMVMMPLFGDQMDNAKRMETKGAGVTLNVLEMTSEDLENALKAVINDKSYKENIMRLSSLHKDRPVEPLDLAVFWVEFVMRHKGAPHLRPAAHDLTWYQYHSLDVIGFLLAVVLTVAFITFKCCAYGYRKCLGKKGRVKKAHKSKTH

CYP3A4 = assay: CYP induction in cryopreserved human hepatocytes; format: in vitro ADME; conditions: for mRNA Mean Fold Change ± SD CYP3A4: 48 h, n = 3 donors, vs DMSO vehicle
OCT2 [4] = biological target: T3, OCT2 (Homo sapiens, UniProt O15244); assay: Inhibition of transporter-mediated probe uptake in CHO-K1-OCT2 cells; format: in vitro ADME
T3 construct: expressed in transfected cells; host or cells: CHO-K1
T3 sequence (O15244 1-555): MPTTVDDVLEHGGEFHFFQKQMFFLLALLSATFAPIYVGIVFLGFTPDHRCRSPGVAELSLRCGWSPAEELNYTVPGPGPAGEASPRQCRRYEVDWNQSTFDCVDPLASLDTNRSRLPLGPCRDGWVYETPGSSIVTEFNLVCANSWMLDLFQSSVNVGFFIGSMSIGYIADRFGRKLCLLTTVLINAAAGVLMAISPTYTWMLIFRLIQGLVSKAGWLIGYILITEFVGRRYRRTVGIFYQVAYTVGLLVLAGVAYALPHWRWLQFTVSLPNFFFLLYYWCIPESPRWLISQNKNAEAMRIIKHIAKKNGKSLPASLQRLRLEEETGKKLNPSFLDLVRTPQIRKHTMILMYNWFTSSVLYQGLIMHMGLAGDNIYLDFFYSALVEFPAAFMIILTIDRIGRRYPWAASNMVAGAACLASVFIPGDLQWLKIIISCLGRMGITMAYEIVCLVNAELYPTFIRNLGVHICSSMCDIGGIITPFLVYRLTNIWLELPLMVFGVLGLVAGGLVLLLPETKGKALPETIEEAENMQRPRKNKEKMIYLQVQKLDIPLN

OCT2 [5] = biological target: T3, OCT2; assay: Islatravir uptake as substrate, CHO-K1 vs CHO-K1-OCT2 cells; format: in vitro ADME
OAT1 = biological target: T4, OAT1 (Homo sapiens, UniProt Q4U2R8); assay: Islatravir uptake as substrate, MDCKII vs MDCKII-OAT1 cells; format: in vitro ADME
T4 construct: expressed in transfected cells; host or cells: MDCKII
T4 sequence (Q4U2R8 1-563): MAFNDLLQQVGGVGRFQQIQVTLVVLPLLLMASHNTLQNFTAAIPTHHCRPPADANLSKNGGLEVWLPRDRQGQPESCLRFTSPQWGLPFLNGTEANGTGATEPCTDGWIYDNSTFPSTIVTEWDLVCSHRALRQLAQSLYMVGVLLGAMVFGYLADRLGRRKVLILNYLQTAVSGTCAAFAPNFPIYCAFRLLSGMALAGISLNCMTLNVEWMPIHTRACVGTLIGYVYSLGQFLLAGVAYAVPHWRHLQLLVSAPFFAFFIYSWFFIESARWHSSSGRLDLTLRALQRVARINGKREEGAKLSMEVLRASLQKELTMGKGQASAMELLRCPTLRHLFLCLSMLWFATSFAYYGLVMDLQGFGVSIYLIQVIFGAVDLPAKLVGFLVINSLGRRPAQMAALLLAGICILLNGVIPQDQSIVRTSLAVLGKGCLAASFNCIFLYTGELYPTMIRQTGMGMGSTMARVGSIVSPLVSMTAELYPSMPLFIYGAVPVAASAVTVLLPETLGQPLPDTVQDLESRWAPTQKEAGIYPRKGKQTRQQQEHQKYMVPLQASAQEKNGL

[6] = Projected human exposure for a 60 mg oral dose
CYP1A2 = assay: CYP induction in cryopreserved human hepatocytes; conditions: for mRNA Mean Fold Change ± SD CYP1A2: 48 h, n = 3 donors, vs DMSO vehicle

Chain of CYP2C19 (P33261 whole entry): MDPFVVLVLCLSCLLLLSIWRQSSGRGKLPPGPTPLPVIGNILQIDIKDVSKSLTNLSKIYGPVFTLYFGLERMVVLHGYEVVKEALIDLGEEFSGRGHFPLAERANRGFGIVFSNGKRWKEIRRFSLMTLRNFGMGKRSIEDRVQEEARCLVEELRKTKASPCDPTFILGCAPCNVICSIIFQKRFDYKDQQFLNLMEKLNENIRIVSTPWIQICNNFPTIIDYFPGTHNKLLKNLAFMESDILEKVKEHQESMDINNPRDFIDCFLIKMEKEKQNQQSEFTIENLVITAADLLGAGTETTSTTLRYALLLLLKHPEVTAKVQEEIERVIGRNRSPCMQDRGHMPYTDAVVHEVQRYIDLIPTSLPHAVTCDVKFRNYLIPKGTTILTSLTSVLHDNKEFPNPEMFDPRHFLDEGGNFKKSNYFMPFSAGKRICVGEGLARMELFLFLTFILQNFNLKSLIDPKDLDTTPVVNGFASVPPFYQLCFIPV
T1 sequence (P00813 whole entry): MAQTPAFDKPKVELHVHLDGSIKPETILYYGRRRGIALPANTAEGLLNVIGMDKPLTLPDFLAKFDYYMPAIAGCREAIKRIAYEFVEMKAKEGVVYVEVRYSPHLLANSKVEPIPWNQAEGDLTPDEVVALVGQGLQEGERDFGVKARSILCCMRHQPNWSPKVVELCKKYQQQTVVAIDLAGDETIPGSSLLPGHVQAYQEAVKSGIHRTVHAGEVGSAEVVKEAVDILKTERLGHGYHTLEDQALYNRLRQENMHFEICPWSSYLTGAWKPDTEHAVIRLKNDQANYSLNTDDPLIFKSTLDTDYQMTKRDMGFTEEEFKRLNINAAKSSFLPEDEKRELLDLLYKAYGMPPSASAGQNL

C#C[C@]1(CO)O[C@@H](n2cnc3c(N)nc(F)nc32)C[C@@H]1O [Islatravir, 4′-Ethynyl-2-fluoro-2′-deoxyadenosine]
concentration dependence of binding to plasma proteins ([1]; 0.1 to 10 µM, all species tested): did not exhibit concentration dependence
fraction unbound at 24 h, 0.1 µM ([1]; pH 7.4, human plasma, 0.1 µM islatravir, ± standard deviation): 0.96 ± 0.04
ADA-dependent deamination ([2]; 50 µM, 3 h, 1 unit/mL recombinant human ADA): very slow ADA-dependent deamination to M4
Km ([2]; M4 formation, linear over 1-250 µM islatravir, read-out: Michaelis constant [Km]): > 250 µM
Renal Excretion (% Total Plasma Clearance) [3]: 31%
CL renal ([3]; female, Dutch Belted, plasma and urine, iv, urine 0-48 h): 5.3 mL/min/kg
DDI Potential (CYP2C19; CYP2C19 reversible inhibition, FDA, EMA, PMDA guidance): Low risk
Maximum Unbound Plasma Concentration (Imax,u) to Ki,u Ratio (CYP2C19; CYP2C19 reversible, 60 mg, Cmax 1.01 µM, fu,p 0.96, Ki,u = IC50/2): <0.019 µM
IC50 (CYP2C19; reversible, CYP2C19 S-mephenytoin 4′-hydroxylation, read-out: Islatravir IC50): > 100 µM
DDI Potential (UGT1A1; UGT1A1 reversible inhibition, FDA, EMA, PMDA guidance): Low risk ^g
Intestinal Concentration (Igut) to Ki,u Ratio (UGT1A1; UGT1A1 reversible, Igut = 60 mg/250 mL = 818 µM): <16.4 µM
IC50 (UGT1A1; reversible, UGT1A1 estradiol 3-glucuronidation, read-out: Islatravir IC50): > 100 µM
mRNA Mean Fold Change ± SD CYP3A4 (CYP3A4; 0.1 µM): 0.6 ± 0.2
mRNA Mean Fold Change ± SD CYP3A4 (CYP3A4; 0.5 µM): 0.6 ± 0.2
mRNA Mean Fold Change ± SD CYP3A4 (CYP3A4; 1 µM): 0.6 ± 0.2
mRNA Mean Fold Change ± SD CYP3A4 (CYP3A4; 5 µM): 0.5 ± 0.1
mRNA Mean Fold Change ± SD CYP3A4 (CYP3A4; 10 µM): 0.6 ± 0.1
mRNA Mean Fold Change ± SD CYP3A4 (CYP3A4; 20 µM): 0.1 ± 0.1
mRNA response relative to positive control (CYP3A4; CYP3A4, each tested concentration 0.1-20 µM): less than 20%
enzyme activity, fold of solvent control (CYP3A4; CYP3A4 testosterone 6β-hydroxylation, all islatravir concentrations): ≤ 1.1 fold
inhibition at 100 µM (OCT2 [4]; CHO-K1-OCT2 cells, probe metformin, 100 µM islatravir): 15%
IC50 (OCT2 [4]; OCT2-mediated metformin uptake, read-out: Islatravir IC50): > 100 µM
Maximum Unbound Plasma Concentration (Imax,u) to IC50 Ratio (OCT2 [4]; OCT2, 60 mg, Cmax 1.01 µM, fu,p 0.96): <0.010 µM
DDI Potential (OCT2 [4]; OCT2 inhibition, FDA, EMA, PMDA guidance): Low risk
Islatravir Uptake Transporter-Expressing Cells (OCT2 [5]; CHO-K1-OCT2, 1 µM [3H]islatravir, 5 min, mean ± SD, n = 3): 0.79 ± 0.14 pmole/10^6 Cells
Fold-Difference (OCT2 [5]; OCT2, uptake into transporter-expressing cells to control cells, 5 min): 0.81
Islatravir Uptake Control Cells (OCT2 [5]; OCT2 row, CHO-K1 control cells, 1 µM [3H]islatravir, 5 min, mean ± SD, n = 3): 0.97 ± 0.01 pmole/10^6 Cells
Conclusions (OCT2 [5]; OCT2 substrate assessment): Non-substrate
Islatravir Uptake Transporter-Expressing Cells (OAT1; MDCKII-OAT1, 1 µM [3H]islatravir, 5 min, mean ± SD, n = 3): 0.72 ± 0.04 pmole/10^6 Cells
Fold-Difference (OAT1; OAT1, uptake into transporter-expressing cells to control cells, 5 min): 1.04
Islatravir Uptake Control Cells (OAT1; OAT1 row, MDCKII control cells, 1 µM [3H]islatravir, 5 min, mean ± SD, n = 3): 0.69 ± 0.07 pmole/10^6 Cells
Conclusions (OAT1; OAT1 substrate assessment): Non-substrate
projected maximum free concentration at the liver inlet [6]: approximately 10 µM
mRNA Mean Fold Change ± SD CYP1A2 (CYP1A2; 0.1 µM): 0.4 ± 0.2
mRNA Mean Fold Change ± SD CYP1A2 (CYP1A2; 0.5 µM): 0.4 ± 0.2
mRNA Mean Fold Change ± SD CYP1A2 (CYP1A2; 1 µM): 0.5 ± 0.3
mRNA Mean Fold Change ± SD CYP1A2 (CYP1A2; 5 µM): 0.4 ± 0.3
mRNA Mean Fold Change ± SD CYP1A2 (CYP1A2; 10 µM): 0.5 ± 0.4
mRNA Mean Fold Change ± SD CYP1A2 (CYP1A2; 20 µM): 0.2 ± 0.2
mRNA response relative to positive control (CYP1A2; CYP1A2, each tested concentration 0.1-20 µM): less than 20%
enzyme activity, fold of solvent control (CYP1A2; CYP1A2 phenacetin O-deethylation, all islatravir concentrations): ≤ 1.1 fold
